Source: US20040053893A1, “Method of assaying iysophospholipase d activity” (priority 2000, published 2004)

Assays:
LPLD = assay: Substrate specificity of purified LPLD or recombinant LPLD (Table 1); format: biochemical
From the text: The thus-obtained purified LPLD or recombinant LPLD has a substrate specificity as shown in, for example, Table 1.

human serum albumin = human serum albumin (Homo sapiens, UniProt P02768); settings: 5% human serum albumin, reagent B pH 7.6-8.6, 37° C. (FIG. 1)
From the text: Reagent A: N-(2-hydroxyethyl)piperazine-N′-3-propanesulfonic acid (200 mmol/L), Triton X-100 (0.02%)
Reagent B: reagent A was separated and adjusted to pH 7.6, 7.8, 8.0, 8.2, 8.4 and 8.6, diluted 2-fold to give reagent B having various pHs.
citric acid monohydrate (10 mmol/L), Triton X-100 (0.01%), 1-hydroxy-2-linoleoyl-phosphatidyl-p-nitrophenol (Example 3; 10 mmol/L) prepared in the above-mentioned Example.
Two kinds of commercially available control serum, respective test sample 1 (CONSERA: Nissui Pharmaceutical Co.) and test sample 2 (Lipid Serum II: Eiken Chemical Co., Ltd.), and 5% human serum albumin (fatty acid free: Sigma) solution for determination of the activity of albumin fraction in the serum, were used.
Each sample (10 μL) and reagent B (150 μL) were dispensed to a microplate and the plate was incubated at 37° C. for about 5 min. Thereto was added reagent C (50 μL) and the absorbance at a dominant wavelength of 405 nm and sub wavelength of 540 nm was measured with the lapse of time. The LPLD activity was determined based on changes in absorbance per minute that depend on p-nitrophenol released by the action of LPLD. The activity is expressed by the amount of p-nitrophenol released in one minute per 1 mL of the reaction mixture.

[1] = biological target: T1, LPLD in control serum (CONSERA, Lipid Serum II) (Homo sapiens, UniProt Q13822); assay: LPLD activity assay at various reaction pHs, control sera (Example 5); format: biochemical; settings: reagent B pH 7.6-8.6, 37° C. (FIG. 1)
T1 construct: Two kinds of commercially available control serum; purchased Nissui Pharmaceutical Co. (CONSERA); Eiken Chemical Co., Ltd. (Lipid Serum II); host or cells: commercial control serum
From the text: (1) Preparation of Reagent

LPLD in human serum = LPLD in human serum (Homo sapiens, UniProt Q13822); assay: LPLD activity assay with chromogenic substrates, human serum sample (Example 6); settings: pH 8.0, 37° C., p-nitrophenol release at 405 nm, compared with 1-acyl-2-hydroxy substrates B and D (FIG. 2-1)
Description: 2-[4-(2-hydroxyethyl)-1-piperazinyl]ethanesulfonic acid (100 mmol/L), Triton X-100 (0.01%)
Using human serum as a sample, 5% human serum albumin (fatty acid free: Sigma) solution was used for determining the activity in albumin fraction in the serum, and a 5 U/mL solution of Streptomyces-derived PLD (product abbreviation PLDP: Asahi Chemical Industry Co., Ltd.) was used for determining the reactivity with phospholipase D (PLD).
Each sample (10 μL) and reagent A (150 μL) were dispensed to a microplate and the plate was incubated at 37° C. for about 5 min. Thereto was added reagent C (50 μL) and the absorbance at a dominant wavelength of 405 nm and sub wavelength of 540 nm was measured with the lapse of time. The LPLD activity was determined based on changes in absorbance per minute that depend on p-nitrophenol released by the action of LPLD. The activity is expressed by the amount of p-nitrophenol released in one minute per 1 mL of the reaction mixture.

[2] = biological target: T2, purified LPLD (bovine lysophospholipase D) (Bos taurus, UniProt A1A4K5); assay: LPLD activity assay using purified LPLD at various reaction pHs (Example 12); format: biochemical; settings: purified LPLD of Example 9, 37° C., 405 nm (FIG. 5)
T2 construct: The starting material, FCS, and respective fractions obtained in the above-mentioned (1)-(7) were assayed for lysophospholipase D activity; from tissue; host or cells: fetal calf serum (FCS), chromatographic purification
Description: (2) Preparation of Reagents
Reagent C: 1-myristoyl-phosphatidyl-p-nitrophenol was dissolved in reagent B to correspond to 10 mmol/L and used as reagent C.
For assay, biochemical automatic analyzer (Toshiba Corporation: TBA-80FR NEO) was used. The purified LPLD (8 μL) obtained in Example 9 and reagent A (240 μL) were pre-warmed at 37° C. for about 15 min, and after addition of reagent C (80 μL), the absorbance at dominant wavelength 405 nm and sub wavelength of 505 nm was measured with lapse of time for about 15 min.

Sequence of human serum albumin (P02768 25-609): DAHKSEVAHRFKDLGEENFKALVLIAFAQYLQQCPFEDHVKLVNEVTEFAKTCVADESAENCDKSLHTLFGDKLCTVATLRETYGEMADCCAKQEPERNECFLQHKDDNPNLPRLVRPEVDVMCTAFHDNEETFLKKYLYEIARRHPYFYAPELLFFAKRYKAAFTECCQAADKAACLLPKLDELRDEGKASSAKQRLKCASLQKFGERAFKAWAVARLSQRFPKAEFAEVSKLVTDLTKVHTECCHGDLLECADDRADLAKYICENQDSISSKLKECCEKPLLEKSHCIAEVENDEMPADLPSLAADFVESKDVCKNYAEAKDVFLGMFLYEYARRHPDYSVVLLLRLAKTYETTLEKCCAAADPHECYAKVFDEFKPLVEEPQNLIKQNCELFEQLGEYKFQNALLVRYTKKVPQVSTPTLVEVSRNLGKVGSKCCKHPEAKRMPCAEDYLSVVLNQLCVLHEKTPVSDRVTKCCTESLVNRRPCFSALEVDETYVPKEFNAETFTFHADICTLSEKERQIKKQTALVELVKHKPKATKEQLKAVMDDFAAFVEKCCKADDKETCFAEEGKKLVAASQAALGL

Compound | Reaction product (LPLD) | also measured
lysophosphatidylserine | lysophosphatidic acid, serine | 
1-alkenyl-2-hydroxy-glycerophosphocholine | 1-alkenyl-2-hydroxy-glycero-3- | 
CCCCC/C=C\C/C=C\CCCCCCCC(=O)OC(CO)COP(=O)(O)Oc1ccc([N+](=O)[O-])cc1 (centres unmarked) [substrate A] |  | activity in a human serum albumin fraction as a function of reaction pH (human serum albumin): also increases; LPLD activity as a function of reaction pH [1]: potent when pH is on the alkaline side; response to human serum (LPLD in human serum): higher
lysophosphatidylethanolamine | lysophosphatidic acid, | 
CCCCCCCCCCCCC/C=C/[C@@H](O)[C@@H](N)COP(=O)([O-])OCC[N+](C)(C)C [lysosphingomyelin] | Sphingosine-1-phosphate, | 
CCCCCCCC/C=C\CCCCCCCC(=O)OC(CO)COP(=O)(O)Oc1ccc([N+](=O)[O-])cc1 (centres unmarked) [substrate C] |  | response to human serum (LPLD in human serum): higher
lysophosphatidylcholine | lysophosphatidic acid, choline | 
CCCCCCCCCCCCCC(=O)OCC(O)COP(=O)(O)Oc1ccc([N+](=O)[O-])cc1 (centres unmarked) [1-myristoyl-phosphatidyl-p-nitrophenol] |  | LPLD activity as a function of reaction pH [2]: stronger activity was found when pH was on the alkaline side
lysophosphatidylinositol | lysophosphatidic acid, | 
